Test results: US20230048888A1, “USE OF TRIAZOLOTRIAZINE DERIVATIVE IN TREATMENT OF DISEASES” (ZHEJIANG VIMGREEN PHARMACEUTICALS, LTD., priority 2019, published 2023)
Like-named read-outs stand apart in the source and are kept apart here.

What was measured:
[1] = Stability of acetate crystal at 60° C. closed and 40° C./75% RH open, HPLC purity and XRPD; type: physicochemical; settings: for XPRD (crystal form after storage): 7 days; for Purity over 7 days (area %): initial purity 98.79 area %
Experimental: A certain amount of acetate crystal was held at 60° C. in a closed condition and at 40° C./75% RH in an open condition for a maximum of 7 days. Samples were taken on days 0, 3, and 7 and diluted with a diluent to about 0.3 mg/mL for HPLC purity testing. The solid samples were tested by XRPD to determine the crystal form.

[2] = system: MPTP-induced Parkinson's disease; experiment: MPTP-induced mouse Parkinson's disease model, open field test; type: in vivo, C57BL/6 mice; settings: open field 10 minutes
Text: By injecting the substantia nigra selective toxin MPTP, the mitochondria were intervened to induce lipid peroxidation for disturbing the membrane structure and affecting cell function, and finally the substantia nigra dopaminergic (DA) neurons were selectively destroyed, leading to the massive death of substantia nigra DA neurons, the massive loss of striatum tyrosine hydroxylase-positive fibers, and the significant decrease in the levels of striatum DA and its metabolites 3,4-dihydroxyphenylacetic acid and homovanillic acid. There are also the hyperplasia of the substantia nigra striatal microglia and astrocytes and the damage of locus coeruleus, hypothalamus and other areas, which are basically the same as those in patients with Parkinson's disease. The ameliorative effect of a test substance on the stiffness symptom of Parkinson's disease induced by MPTP in mice was evaluated.
C57BL/6 male mice of 8 weeks old were selected. The 8-week-old C57 mice were intraperitoneally (i.p.) injected with a vehicle dissolved in saline (normal saline) or MPTP (30 mg/kg body weight) for 5 days to induce the Parkinson's disease.
At 0.5 hours after the last MPTP injection, two doses (10 mpk and 30 mpk) were administered by intragastric administration.
At 1.5 hours after the last MPTP injection, an open field test (total travel distance and number of standings) was performed for 10 minutes.

[3] = Pharmacokinetic evaluation of Compound 22 in female BALB/c mice in different vehicles; type: in vivo; settings: mouse, plasma, po, 100 mg/kg, 100 mg/kg p.o. single; for half-life: read-out: T½ (converted)
Experimental: BALB/c mice, female, 7-9 weeks old (the age of mice at the start of the experiment), weight: 19.2-22.1 g, […] (34 mice plus another 10 surplus mice). They were purchased from Shanghai Lingchang Biotechnology Co., Ltd. (LC), with animal certificate number: 2013001835211. Rearing environment: SPF level.
After single administration, plasma was collected from each group at 0.25 h, 0.5 h, 1 h, 2 h, 4 h, 6 h, 8 h and 24 h, with 3 mice at each time point, and the experiment was terminated after 24h. 10 remaining mice were used to collect blank plasma.

[4] = system: CT26 cells; experiment: CT26 murine colon cancer homotransplantation model; type: in vivo, BALB/c mice
Experimental: The CT26 murine colon cancer homotransplantation model is a classic pharmaceutical effect evaluation model for colon cancer. It is constructed by subcutaneously inoculating CT26 to BALB/c mice. The test compounds were administrated to evaluate their inhibitory effects on tumor growth in the model.
CT26 cells were cultured in an RPMI1640 culture solution containing 10% fetal bovine serum. The CT26 cells in the exponential growth phase were collected and resuspended in PBS to a suitable concentration for subcutaneous tumor inoculation in mice.
Female mice were subcutaneously inoculated with 5×10^5 CT26 cells on the right side. The day of inoculation was defined as Day 0. On the second day (Day 1) of […] cell inoculation, the mice were administered randomly according to body weight.
Tumor proliferation rate, T/C %, was a percentage ratio of tumor volume or tumor weight between the treatment group and the control group at a certain time point. It was calculated with a formula was as follows:
T/C %=TTV/CTV×100% (TTV (TTV: the average TV of the treatment group at a specific time point;

[5] = Group 1, vehicle 40% PEG400/60% water
[6] = Group 2, vehicle 40% (2-hydroxypropyl)-β-cyclodextrin

CC(=O)O.Nc1nc(NCCc2ccc(NC3COC3)cc2)nc2nc(-c3ccco3)nn12 [Acetate of Compound 22, 2-(furan-2-yl)-N5-(4-(oxetane-3-ylamino)phenethyl)-[1,2,4]triazolo[1,5-a][1,3,5]triazine-5,7-diamine acetate]
XPRD (crystal form after storage) ([1]; 40° C./75% RH open): Transformed | Purity over 7 days (area %) ([1]; 40° C./75% RH open): 98.99 area % | Degradation under test conditions ([1]; 60° C. and 40° C./75% RH, up to 7 days): no significant degradation | XPRD (crystal form after storage) ([1]; 60° C. closed): Unchanged | Purity over 7 days (area %) ([1]; 60° C. closed): 99.01 area %

Nc1nc(NCCc2ccc(NC3COC3)cc2)nc2nc(-c3ccco3)nn12 [Compound 22, 2-(furan-2-yl)-N5-(4-(oxetan-3-ylamino)phenethyl)-[1,2,4]triazolo[1,5-a][1,3,5]triazine-5,7-diamine]
Moving distance (cm) ([2]; 10 mg/kg p.o. once): 647.0 cm | Number of standings ([2]; 10 mg/kg p.o. once): 18.3 | Moving distance (cm) ([2]; 30 mg/kg p.o. once): 1107.3 cm | Number of standings ([2]; 30 mg/kg p.o. once): 31.0 | AUC(0-inf) [3, 5]: 16100 ng·h/mL | AUC(0-t) [3, 5]: 15900 ng·h/mL | Cmax [3, 5]: 2080 ng/mL | Tmax [3, 5]: 1 h | half-life [3, 5]: 3.04 h | AUC(0-inf) [3, 6]: 28500 ng·h/mL | AUC(0-t) [3, 6]: 28400 ng·h/mL | Cmax [3, 6]: 5580 ng/mL | Tmax [3, 6]: 0.5 h | half-life [3, 6]: 2.66 h | T/C (%) ([4]; Day 26, 100 mg/kg p.o. QD): 81% | TGI (%) ([4]; Day 26, 100 mg/kg p.o. QD): 19% | Tumor volume ([4]; Day 26, 100 mg/kg p.o. QD, in mm³): 1988.56 ± 325.70 | Clinical abnormalities during the dosage ([4]; p.o. QD × 25 days): no obvious clinical abnormalities were observed
